In PubChem BioAssay (NCI):
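Cultured in 96-well plates, cells were exposed to test compound for 48 hours across five concentrations. The concentration for full growth arrest is given as TGI.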

Tests used:
Assay in all cases: NCI-60 cell line screen, 48 h
HOP-92 NSCLC = tested on: HOP-92 NSCLC
NCI-H23 lung = tested on: NCI-H23 lung
UO-31 renal = tested on: UO-31 renal
OVCAR-8 ovarian = tested on: OVCAR-8 ovarian
K-562 leukemia = tested on: K-562 leukemia
SF-268 CNS = tested on: SF-268 CNS
SN12C renal = tested on: SN12C renal
786-0 renal = tested on: 786-0 renal
OVCAR-5 ovarian = tested on: OVCAR-5 ovarian
MCF7 breast = tested on: MCF7 breast
IGROV1 ovarian = tested on: IGROV1 ovarian
EKVX NSCLC = tested on: EKVX NSCLC
RPMI-8226 leukemia = tested on: RPMI-8226 leukemia
A549 NSCLC = tested on: A549 NSCLC
KM12 colon = tested on: KM12 colon
SNB-19 CNS = tested on: SNB-19 CNS
MDA-MB-435 = tested on: MDA-MB-435
BT-549 breast = tested on: BT-549 breast
OVCAR-4 ovarian = tested on: OVCAR-4 ovarian
HS 578T breast = tested on: HS 578T breast
MOLT-4 leukemia = tested on: MOLT-4 leukemia
RXF 393 renal = tested on: RXF 393 renal
SR leukemia = tested on: SR leukemia
UACC-257 melanoma = tested on: UACC-257 melanoma
MDA-N = tested on: MDA-N
NCI/ADR-RES ovarian = tested on: NCI/ADR-RES ovarian
CCRF-CEM leukemia = tested on: CCRF-CEM leukemia
DU-145 prostate = tested on: DU-145 prostate
NCI-H460 lung = tested on: NCI-H460 lung
SW-620 colon = tested on: SW-620 colon
SF-539 CNS = tested on: SF-539 CNS
HOP-62 NSCLC = tested on: HOP-62 NSCLC
SF-295 CNS = tested on: SF-295 CNS
PC-3 prostate = tested on: PC-3 prostate
HT29 colon = tested on: HT29 colon
HCC-2998 colon = tested on: HCC-2998 colon
NCI-H522 lung = tested on: NCI-H522 lung
MDA-MB-231 breast = tested on: MDA-MB-231 breast
SK-MEL-2 melanoma = tested on: SK-MEL-2 melanoma
ACHN renal = tested on: ACHN renal
HCT-15 colon = tested on: HCT-15 colon
CAKI-1 renal = tested on: CAKI-1 renal
HCT-116 colon = tested on: HCT-116 colon
COLO 205 colon = tested on: COLO 205 colon
M14 melanoma = tested on: M14 melanoma
SK-MEL-5 melanoma = tested on: SK-MEL-5 melanoma
SK-OV-3 ovarian = tested on: SK-OV-3 ovarian
U251 CNS = tested on: U251 CNS
UACC-62 melanoma = tested on: UACC-62 melanoma
SK-MEL-28 melanoma = tested on: SK-MEL-28 melanoma
OVCAR-3 ovarian = tested on: OVCAR-3 ovarian
MALME-3M melanoma = tested on: MALME-3M melanoma
SNB-75 CNS = tested on: SNB-75 CNS
A498 renal = tested on: A498 renal

Measured: TGI

CC(=O)OCC1OC(N2C(=S)N[C@H]([C@@H](O)[C@H](O)[C@H](O)CO)[C@H]2O)C(OC(C)=O)C(OC(C)=O)C1OC(C)=O (some centres not stated)
not listed: MALME-3M melanoma | SNB-75 CNS | A498 renal
> 100 µM: all other assays above

C/C=C\C(CC(=O)O)CN1CCC2=C(C1)C(S(=O)(=O)C(F)(F)F)c1ccccc12 (configuration not stated)
not listed: SN12C renal | CCRF-CEM leukemia | SF-539 CNS
> 100 µM: all other assays above
